Experimental data from patent US8877775B2, “Substituted 2-aza-bicyclo[2.2.2]octane-3-carboxylic acid (benzyl-cyano-methyl)-amides inhibitors of cathepsin C” (Boehringer Ingelheim International GmbH, priority 2013, dated 2014).

Columns and labels:
[1] = target: recombinant human DPPI (Cathepsin C) (Homo sapiens (Human), UniProt P53634); assay: Inhibition of human DPPI (Cathepsin C); type: biochemical; conditions: substrate Gly-Arg-AMC 50 μM, 30 min, room temperature
Text: Inhibition of Human DPPI (Cathepsin C)
Materials: Microtiterplates (Optiplate-384 F) were purchased from PerkinElmer (Prod. No. 6007270). The substrate Gly-Arg-AMC was from Biotrend (Prod.-No. 808756 Custom peptide). Bovine serum albumin (BSA; Prod. No. A3059) and Dithiothreitol (DTT; Prod. No D0632) were from Sigma. TagZyme buffer was from Riedel-de-Haen (Prod.-No. 04269), NaCl was from Merck (Prod.-No. 1.06404.1000) and morpholinoethane sulfonic acid (MES), was from Serva (Prod.-No. 29834). The DPP1 inhibitor Gly-Phe-DMK was purchased from MP Biomedicals (Prod.-No. 03DK00625). The recombinant human DPPI was purchased from Prozymex. All other materials were of highest grade commercially available.
The following buffers were used: MES buffer: 25 mM MES, 50 mM NaCl, 5 mM DTT, adjusted to pH 6.0, containing 0.1% BSA; TAGZyme Buffer: 20 mM NaH2PO4, 150 mM NaCl adjusted to pH 6.0 with HCl
The recombinant human DPPI was diluted in TAGZyme buffer to 1 U/ml (38.1 μg/ml, respectively), and then activated by mixing in a 1:2 ratio with a Cysteamine aqueous solution (2 mM) and incubating for 5 min at room temperature.
Five uL test compound (final concentration 0.1 nM to 100 μM) in aqua bidest (containing 4% DMSO, final DMSO concentration 1%) were mixed with 10 μL of DPPI in MES buffer (final concentration 0.0125 ng/μL) and incubated for 10 min. Then, 5 μL of substrate in MES buffer (final concentration 50 μM) were added. The microtiter plates were then incubated at room temperature for 30 min. Then, the reaction was stopped by adding 10 μL of Gly-Phe-DMK in MES-buffer (final concentration 1 μM). The fluorescence in the wells was determined using a Molecular Devices SpectraMax M5 Fluorescence Reader (Ex 360 nm, Em 460 nm) or an Envision Fluorescence Reader (Ex 355 nm, Em 460 nm).
The analysis of the data was performed by calculating the percentage of fluorescence in the presence of test compound in comparison to the fluorescence of the vehicle control after subtracting the background fluorescence using the following formula: (RFU(sample)−RFU(background))*100/(RFU(control)−RFU(background))
Data from these calculations were used to generate IC50 values for inhibition of DPPI, respectively.

[2] = Metabolic stability with human liver microsomes; type: in vitro ADME; conditions: pH 7.6; pooled human liver microsomes, 37° C., 1 μM test compound, 1 mg/ml protein, NADPH; read-out: In vitro stability in human liver microsome incubations t1/2
Method: Determination of Metabolic Stability with Human Liver Microsomes
The metabolic degradation of the test compound is assayed at 37° C. with pooled human liver microsomes. The final incubation volume of 100 μl per time point contains TRIS buffer pH 7.6 (0.1 M), magnesium chloride (5 mM), microsomal protein (1 mg/ml) and the test compound at a final concentration of 1 μM. Following a short preincubation period at 37° C., the reactions are initiated by addition of beta-nicotinamide adenine dinucleotide phosphate, reduced form (NADPH, 1 mM) and terminated by transfering an aliquot into acetonitrile after different time points. Additionally, the NADPH-independent degradation is monitored in incubations without NADPH, terminated at the last time point. The [%] remaining test compound after NADPH independent incubation is reflected by the parameter c(control) (metabolic stability). The quenched incubations are pelleted by centrifugation (10′000 g, 5 min). An aliquot of the supernatant is assayed by LC-MS/MS for the amount of parent compound.
The half-life (t1/2 INVITRO) is determined by the slope of the semilogarithmic plot of the concentration-time profile. The intrinsic clearance (CL_[…]) is calculated by considering the amount of protein in the incubation: CL_[…][μl/min/mg protein]=(In 2/(half-life[min]*protein content[mg/ml]))*1′000. The half-life (t1/2 INVITRO) values of selected compounds in the metabolic stability assay described above are listed in the following table

Sequence of recombinant human DPPI (Cathepsin C) (P53634 231-394): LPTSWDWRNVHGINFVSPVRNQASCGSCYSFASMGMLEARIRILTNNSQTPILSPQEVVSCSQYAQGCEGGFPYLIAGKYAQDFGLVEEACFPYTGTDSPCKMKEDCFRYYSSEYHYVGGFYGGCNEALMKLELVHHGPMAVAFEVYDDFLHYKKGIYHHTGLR
Sequence of recombinant human DPPI (Cathepsin C) (P53634 395-463): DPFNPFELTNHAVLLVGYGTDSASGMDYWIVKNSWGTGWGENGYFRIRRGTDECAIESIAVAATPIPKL
Sequence of recombinant human DPPI (Cathepsin C) (P53634 25-134): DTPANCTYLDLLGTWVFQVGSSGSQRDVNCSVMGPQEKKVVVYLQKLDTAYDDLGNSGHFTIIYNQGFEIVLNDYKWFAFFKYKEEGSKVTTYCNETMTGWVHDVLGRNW

Compound	IC50 [1]	half-life at 1 μM [2]
CS(=O)(=O)c1cccc(-c2ccc(C[C@@H](C#N)NC(=O)[C@H]3NC4CCC3CC4)cc2)c1 [Example 10]	73.5 nM	> 130 min
N#C[C@H](Cc1ccc(-c2ccc3c(c2)CNC3=O)cc1)NC(=O)[C@H]1NC2CCC1CC2 [Example 11]	86.7 nM	> 130 min
CS(=O)(=O)Nc1cccc(-c2ccc(C[C@@H](C#N)NC(=O)[C@H]3NC4CCC3CC4)cc2)c1 [Example 12]	97.4 nM	64 min

The next compounds have a lower IC50 [1] than those just listed; values first:

IC50 [1]	half-life at 1 μM [2]	Compound
70.2 nM	> 130 min	CS(=O)(=O)c1cc(-c2ccc(C[C@@H](C#N)NC(=O)[C@H]3NC4CCC3CC4)cc2)ccc1C#N [Example 8]
32.2 nM	88 min	CN1C(=O)Cc2ccc(-c3ccc(C[C@@H](C#N)NC(=O)[C@H]4N[C@H]5CC[C@@H]4CC5)cc3)cc21 [Example 4]
50.1 nM	120 min	N#C[C@H](Cc1ccc(-c2ccc3c(c2)NC(=O)C3)cc1)NC(=O)[C@H]1NC2CCC1CC2 [Example 2, (2S)—N-[(1S)-cyano-2-[4-(2-oxoindolin-6-yl)phenyl]ethyl]-3-azabicyclo[2.2.2]octane-2-carboxamide]
66.4 nM	> 130 min	N#Cc1ccc(-c2ccc(C[C@@H](C#N)NC(=O)[C@H]3N[C@H]4CC[C@@H]3CC4)cc2)cc1F [Example 7, (2S)—N-[(1S)-1-cyano-2-[4-(4-cyano-3-fluoro-phenyl)phenyl]ethyl]-3-azabicyclo[2.2.2]octane-2-carboxamide]
